Measured values published in ChEMBL document CHEMBL5260810, “Inhibition of bromodomain-containing protein 9 for the prevention of epigenetically-defined drug resistance” (Bioorg Med Chem Lett, 2017).
pIC50: −log10 of the molar value.

How the values were obtained:
Type in all cases: functional, cell-based
[1] = Cytotoxicity against human HCC1576 cells measured after 8 days; conditions: HCC1576, 192 h
[2] = tested on: EJM; assay: Cytotoxicity against human EJM cells measured after 8 days; conditions: 192 h
[3] = tested on: KU812 cell line; assay: Cytotoxicity against human KU812 cell line measured after 8 days; conditions: KU812, 192 h
[4] = Cytotoxicity against human KHM-1B cells measured after 8 days; conditions: 192 h
[5] = tested on: OCI-AML-3; assay: Cytotoxicity against human OCI-AML-3 cells measured after 8 days; conditions: OCI-AML-3, 192 h
[6] = Cytotoxicity against human NCI-H196 cells measured after 8 days; conditions: NCI-H196, 192 h
[7] = Cytotoxicity against human NCI-H2461 cells measured after 8 days; conditions: NCI-H2461, 192 h
[8] = tested on: MG-63; assay: Cytotoxicity against human MG-63 cells measured after 8 days; conditions: MG-63, 192 h
[9] = tested on: MHH-ES-1; assay: Cytotoxicity against human MHH-ES-1 cells measured after 8 days; conditions: MHH-ES-1, 192 h
[10] = tested on: NCI-H417; assay: Cytotoxicity against human NCI-H417 cells measured after 8 days; conditions: NCI-H417, 192 h
[11] = tested on: CHP-212; assay: Cytotoxicity against human CHP-212 cells measured after 8 days; conditions: CHP-212, 192 h
[12] = Cytotoxicity against human NCE-G 44 cells measured after 8 days; conditions: NCE-G 44, 192 h
[13] = Cytotoxicity against human NCE-G 59 cells measured after 8 days; conditions: NCE-G 59, 192 h
[14] = Cytotoxicity against human GOS-3 cells measured after 8 days; conditions: GOS-3, 192 h
[15] = Cytotoxicity against mouse FOX-NY cells measured after 8 days; conditions: 192 h
[16] = tested on: MPC-11; assay: Cytotoxicity against mouse MPC-11 cells measured after 8 days; conditions: MPC-11, 192 h
[17] = Cytotoxicity against human SC1 cells measured after 8 days; conditions: SC-1, 192 h
[18] = tested on: SH-SY5Y; assay: Cytotoxicity against human SH-SY5Y cells measured after 8 days; conditions: 192 h
[19] = Cytotoxicity against human COLO-704 cells measured after 8 days; conditions: COLO 704, 192 h
[20] = tested on: DOV13; assay: Cytotoxicity against human DOV13 cells measured after 8 days; conditions: DOV13, 192 h
[21] = tested on: EFO-27; assay: Cytotoxicity against human EFO-27 cells measured after 8 days; conditions: EFO-27, 192 h
[22] = tested on: KURAMOCHI; assay: Cytotoxicity against human KURAMOCHI cells measured after 8 days; conditions: 192 h
[23] = tested on: OVCAR-3; assay: Cytotoxicity against human OVCAR-3 cells measured after 8 days; conditions: OVCAR-3, 192 h
[24] = tested on: OVCAR-8; assay: Cytotoxicity against human OVCAR-8 cells measured after 8 days; conditions: OVCAR-8, 192 h
[25] = tested on: MCF-10A; assay: Cytotoxicity against human MCF-10A CDH1-/- cells measured after 8 days; conditions: 192 h
[26] = tested on: HT-3; assay: Cytotoxicity against human HT-3 cells measured after 8 days; conditions: HT-3, 192 h
[27] = Cytotoxicity against human MR1-3 cells measured after 8 days; conditions: MR1-3, 192 h
[28] = Cytotoxicity against human KPP14388 LN cells measured after 8 days; conditions: 192 h
[29] = Cytotoxicity against human 51BLim 10 cells measured after 8 days; conditions: 51BLim 10, 192 h
[30] = tested on: CT26.WT; assay: Cytotoxicity against mouse CT26.WT cells measured after 8 days; conditions: 192 h
[31] = Cytotoxicity against human PK-45H cells measured after 8 days; conditions: 192 h
[32] = Cytotoxicity against human PK-8 cells measured after 8 days; conditions: PK-8, 192 h
[33] = Cytotoxicity against human HCC1623 cells measured after 8 days; conditions: HCC1623, 192 h
[34] = tested on: SK-CO-1; assay: Cytotoxicity against human SK-CO-1 cells measured after 8 days; conditions: SK-CO-1, 192 h
[35] = Cytotoxicity against human SW403 cells measured after 8 days; conditions: SW-403, 192 h
[36] = tested on: SW837; assay: Cytotoxicity against human SW837 cells measured after 8 days; conditions: SW837, 192 h
[37] = Cytotoxicity against human 537-mel cells measured after 8 days; conditions: 192 h
[38] = Cytotoxicity against human Mel 928 cells measured after 8 days; conditions: Mel 928, 192 h
[39] = tested on: COLO-679; assay: Cytotoxicity against human COLO-679 cells measured after 8 days; conditions: COLO-679, 192 h
[40] = Cytotoxicity against human COLO 853 cells measured after 8 days; conditions: COLO 853, 192 h
[41] = tested on: Hs 695T; assay: Cytotoxicity against human Hs 695T cells measured after 8 days; conditions: 192 h
[42] = tested on: ACHN; assay: Cytotoxicity against human ACHN cells measured after 8 days; conditions: 192 h
[43] = tested on: CAKI-1; assay: Cytotoxicity against human CAKI-1 cells measured after 8 days; conditions: CAKI-1, 192 h
[44] = tested on: Hep 3B2; assay: Cytotoxicity against human Hep 3B2.1-7 cells measured after 8 days; conditions: Hep3B, 192 h
[45] = tested on: RVH-421; assay: Cytotoxicity against human RVH-421 cells measured after 8 days; conditions: RVH-421, 192 h
[46] = tested on: SK-MEL-24; assay: Cytotoxicity against human SK-MEL-24 cells measured after 8 days; conditions: SK-MEL-24, 192 h
[47] = Cytotoxicity against human JHH-2 cells measured after 8 days; conditions: JHH-2, 192 h
[48] = tested on: PLC-PRF-5; assay: Cytotoxicity against human PLCPRF5 cells measured after 8 days; conditions: PLC-PRF-5, 192 h
[49] = tested on: SNU-423; assay: Cytotoxicity against human SNU-423 cells measured after 8 days; conditions: SNU-423, 192 h
[50] = tested on: SNU-475; assay: Cytotoxicity against human SNU-475 cells measured after 8 days; conditions: SNU-475, 192 h
[51] = Cytotoxicity against human Fu97 cells measured after 8 days; conditions: Fu97, 192 h
[52] = tested on: MKN-1; assay: Cytotoxicity against human MKN-1 cells measured after 8 days; conditions: MKN-1, 192 h
[53] = tested on: NUGC-3; assay: Cytotoxicity against human NUGC-3 cells measured after 8 days; conditions: NUGC-3, 192 h
[54] = Cytotoxicity against human SNU-620 cells measured after 8 days; conditions: SNU620, 192 h
[55] = tested on: DMS-273; assay: Cytotoxicity against human DMS-273 cells measured after 8 days; conditions: DMS-273, 192 h
[56] = Cytotoxicity against human PE/CA-PJ15 cells measured after 8 days; conditions: PE/CA-PJ15, 192 h
[57] = tested on: RT-112; assay: Cytotoxicity against human RT-112 cells measured after 8 days; conditions: RT-112, 192 h
[58] = tested on: AN3-CA; assay: Cytotoxicity against human AN3-CA cells measured after 8 days; conditions: 192 h
[59] = Cytotoxicity against human HCC2885 cells measured after 8 days; conditions: HCC2885, 192 h
[60] = Cytotoxicity against mouse KLN205 cells measured after 8 days; conditions: KLN205, 192 h
[61] = Cytotoxicity against human HEC-151 cells measured after 8 days; conditions: HEC-151, 192 h

SMILES: C/C=C/Cn1cc(-c2ccc(C(C)(C)O)cc2OC)c2cc[nH]c2c1=O
- pIC50 [1]: 4.70
- pIC50 [2]: 4.70
- pIC50 [3]: 4.70
- pIC50 [4]: 4.70
- pIC50 [5]: 4.70
- pIC50 [6]: 4.70
- pIC50 [7]: 4.70
- pIC50 [8]: 5.13
- pIC50 [9]: 4.70
- pIC50 [10]: 4.70
- pIC50 [11]: 4.70
- pIC50 [12]: 4.70
- pIC50 [13]: 4.70
- pIC50 [14]: 4.70
- pIC50 [15]: 4.70
- pIC50 [16]: 4.78
- pIC50 [17]: 4.75
- pIC50 [18]: 4.70
- pIC50 [19]: 4.70
- pIC50 [20]: 4.70
- pIC50 [21]: 4.70
- pIC50 [22]: 4.70
- pIC50 [23]: 4.70
- pIC50 [24]: 4.70
- pIC50 [25]: 4.70
- pIC50 [26]: 4.70
- pIC50 [27]: 4.70
- pIC50 [28]: 4.70
- pIC50 [29]: 4.70
- pIC50 [30]: 4.70
- pIC50 [31]: 4.70
- pIC50 [32]: 4.70
- pIC50 [33]: 4.70
- pIC50 [34]: 4.70
- pIC50 [35]: 4.70
- pIC50 [36]: 4.70
- pIC50 [37]: 4.70
- pIC50 [38]: 4.70
- pIC50 [39]: 4.70
- pIC50 [40]: 4.70
- pIC50 [41]: 4.70
- pIC50 [42]: 4.70
- pIC50 [43]: 4.70
- pIC50 [44]: 4.70
- pIC50 [45]: 4.70
- pIC50 [46]: 4.70
- pIC50 [47]: 4.70
- pIC50 [48]: 4.70
- pIC50 [49]: 4.70
- pIC50 [50]: 4.70
- pIC50 [51]: 4.70
- pIC50 [52]: 4.70
- pIC50 [53]: 4.70
- pIC50 [54]: 4.70
- pIC50 [55]: 4.70
- pIC50 [56]: 4.70
- pIC50 [57]: 4.70
- pIC50 [58]: 4.70
- pIC50 [59]: 4.70
- pIC50 [60]: 4.70
- pIC50 [61]: 4.70

SMILES: C/C=C/Cn1cc(-c2ccc(C(=O)N3CCOCC3)cc2)c2cc[nH]c2c1=O
- pIC50 [1]: 4.70
- pIC50 [2]: 4.70
- pIC50 [3]: 4.70
- pIC50 [4]: 4.70
- pIC50 [5]: 4.95
- pIC50 [6]: 4.70
- pIC50 [7]: 4.70
- pIC50 [8]: 4.70
- pIC50 [9]: 4.70
- pIC50 [10]: 4.70
- pIC50 [11]: 4.73
- pIC50 [12]: 4.70
- pIC50 [13]: 4.70
- pIC50 [14]: 4.70
- pIC50 [15]: 4.92
- pIC50 [16]: 4.97
- pIC50 [17]: 4.70
- pIC50 [18]: 4.70
- pIC50 [19]: 4.70
- pIC50 [20]: 4.70
- pIC50 [21]: 4.70
- pIC50 [22]: 4.70
- pIC50 [23]: 4.70
- pIC50 [24]: 4.70
- pIC50 [25]: 4.70
- pIC50 [26]: 4.70
- pIC50 [27]: 4.70
- pIC50 [28]: 4.70
- pIC50 [29]: 4.91
- pIC50 [30]: 4.70
- pIC50 [31]: 4.70
- pIC50 [32]: 4.70
- pIC50 [33]: 4.70
- pIC50 [34]: 4.70
- pIC50 [35]: 4.70
- pIC50 [36]: 4.70
- pIC50 [37]: 4.70
- pIC50 [38]: 4.70
- pIC50 [39]: 4.70
- pIC50 [40]: 4.70
- pIC50 [41]: 4.70
- pIC50 [42]: 4.70
- pIC50 [43]: 4.70
- pIC50 [44]: 4.70
- pIC50 [45]: 4.70
- pIC50 [46]: 4.70
- pIC50 [47]: 4.70
- pIC50 [48]: 4.70
- pIC50 [49]: 4.70
- pIC50 [50]: 4.70
- pIC50 [51]: 4.70
- pIC50 [52]: 4.70
- pIC50 [53]: 4.70
- pIC50 [54]: 4.70
- pIC50 [55]: 4.70
- pIC50 [56]: 4.70
- pIC50 [57]: 4.70
- pIC50 [58]: 4.70
- pIC50 [59]: 4.70
- pIC50 [60]: 4.70
- pIC50 [61]: 4.70
